Test results as given in US9770026B2, “Substituted pyrimidine compound and uses thereof” (Shenyang Sinochem Agrochemicals R&D Co., Ltd., priority 2012, dated 2017).

Columns and labels:
Diamond back moth = assay: insecticidal activity against diamond back moth, airbrush spray; assay type: in vivo; conditions: for control (test results against diamond back moth): mortality after 72 hrs
Summary of the method: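 Airbrush leaf-disc spray test: both faces of 2 cm cabbage discs received 0.5 ml of test solution at 0.7 kg/cm^2. Solutions were made in acetone:methanol (1:1) and brought to concentration with 0.1% Tween 80 in water. Ten second-instar larvae per disc, triplicates, were held at 25° C and 60˜70% R.H., with mortality recorded at 72 hrs.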

armyworm = assay: bioactivity test against armyworm, airbrush spray; assay type: in vivo; conditions: for control (test results against armyworm): mortality after 72 h
[1] = test system: Green peach aphids (Myzus Persicae Sulzer); assay: bioactivity test against green peach aphid, airbrush foliar spray; assay type: in vivo; conditions: for control (test results against green peach aphid): death rate after 48 hrs
Summary of the method: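 Death rate was scored at 48 hrs, held at 25±1 C and 60±5% RH, following airbrush foliar spray (0.5 mL, 10 psi) onto cabbage leaf discs bearing about 15-30 aphids. Test solutions: compound dissolved in 1:1 acetone:methanol, brought to concentration with 0.1% tween 80 water.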

carmine spider mite = assay: bioactivity test against carmine spider mite, airbrush spray; assay type: in vivo
Summary of the method: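 Broadbean seedlings infested with adult mites were sprayed with compound (acetone/methanol stock diluted in 0.1% Tween 80 water) by airbrush at 0.7 kg/cm^2, 0.5 ml. Three replicates were run. Mortality was scored after 72 hrs.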

corn rust = assay: protectant activity in vivo against corn rust
wheat powdery mildew = assay: protectant activity in vivo against wheat powdery mildew
cucumber downy mildew = assay: protectant activity in vivo against cucumber downy mildew
[2] = 100 ppm, mortality after 72 hrs
[3] = 600 ppm, mortality after 72 hrs

CCc1ncnc(NCCc2ccc(Oc3ccc(C(F)(F)F)cn3)cc2)c1Cl [Compound I-6740]
control (test results against diamond back moth) (Diamond back moth; 100 ppm): 100%
control (test results against diamond back moth) (Diamond back moth; 600 ppm): 100%
control (test results against armyworm) (armyworm; 100 ppm): 100%
control (test results against armyworm) (armyworm; 600 ppm): 100%
control (test results against green peach aphid) ([1]; 5 ppm): 100%
control (test results against green peach aphid) ([1]; 10 ppm): 100%
control (test results against green peach aphid) ([1]; 100 ppm): 100%
control (test results against green peach aphid) ([1]; 600 ppm): 100%
Insecticidal activity against carmine spider mite (% ) (carmine spider mite; 10 mg/L, contrastive test): 85%
Insecticidal activity against carmine spider mite (% ) (carmine spider mite; 100 mg/L, contrastive test): 100%
Insecticidal activity against carmine spider mite (% ) (carmine spider mite; 600 mg/L, contrastive test): 100%
control against carmine spider mite (carmine spider mite; [2]): 100%
control against carmine spider mite (carmine spider mite; [3]): 100%
pest or weed control at 10 ppm (carmine spider mite; Tetranychus cinnabarinus, 72 h, 10 ppm, mortality after 72 hrs): 80 to 99%
protectant activity against corn rust in vivo (corn rust; 100 ppm): 100%
protectant activity against corn rust in vivo (corn rust; 400 ppm): 100%
protectant activity against wheat powdery mildew in vivo (wheat powdery mildew; 25 ppm): 100%
protectant activity against wheat powdery mildew in vivo (wheat powdery mildew; 100 ppm): 100%
protectant activity against wheat powdery mildew in vivo (wheat powdery mildew; 400 ppm): 100%
pest or weed control at 100 ppm (cucumber downy mildew; Cucumis sativus, 168 h, read-out: protectant activity against cucumber downy mildew in vivo, 100 ppm): 100%
pest or weed control at 400 ppm (cucumber downy mildew; Cucumis sativus, 168 h, read-out: protectant activity against cucumber downy mildew in vivo, 400 ppm): 100%

CCc1ncnc(NCCc2ccc(Oc3ccc(C#N)cc3F)cc2)c1Cl [II-482]
Insecticidal activity against diamond back moth (%) (Diamond back moth; 10 mg/L): 60%
Insecticidal activity against diamond back moth (%) (Diamond back moth; 100 mg/L): 100%
Insecticidal activity against diamond back moth (%) (Diamond back moth; 600 mg/L): 100%
control (test results against diamond back moth) (Diamond back moth; 100 ppm): 100%
control (test results against diamond back moth) (Diamond back moth; 600 ppm): 100%
Insecticidal activity against armyworm (%) (armyworm; 10 mg/L): 80%
Insecticidal activity against armyworm (%) (armyworm; 100 mg/L): 100%
Insecticidal activity against armyworm (%) (armyworm; 600 mg/L): 100%
control (test results against armyworm) (armyworm; 100 ppm): 100%
control (test results against armyworm) (armyworm; 600 ppm): 100%
Insecticidal activity against peach aphid (%) ([1]; 1.25 mg/L, contrastive test): 100%
Insecticidal activity against peach aphid (%) ([1]; 2.5 mg/L, contrastive test): 100%
Insecticidal activity against peach aphid (%) ([1]; 5 mg/L, contrastive test): 100%
Insecticidal activity against peach aphid (%) ([1]; 10 mg/L, contrastive test): 100%
Insecticidal activity against peach aphid (%) ([1]; 100 mg/L, contrastive test): 100%
Insecticidal activity against peach aphid (%) ([1]; 600 mg/L, contrastive test): 100%
control (test results against green peach aphid) ([1]; 2.5 ppm): 100%
control (test results against green peach aphid) ([1]; 5 ppm): 100%
control (test results against green peach aphid) ([1]; 10 ppm): 100%
control (test results against green peach aphid) ([1]; 100 ppm): 100%
control (test results against green peach aphid) ([1]; 600 ppm): 100%
Insecticidal activity against carmine spider mite (% ) (carmine spider mite; 2.5 mg/L): 93%
Insecticidal activity against carmine spider mite (% ) (carmine spider mite; 5 mg/L): 100%
Insecticidal activity against carmine spider mite (% ) (carmine spider mite; 10 mg/L, contrastive test): 100%
Insecticidal activity against carmine spider mite (% ) (carmine spider mite; 100 mg/L, contrastive test): 100%
Insecticidal activity against carmine spider mite (% ) (carmine spider mite; 600 mg/L, contrastive test): 100%
control against carmine spider mite (carmine spider mite; 5 ppm, mortality after 72 hrs): 100%
control against carmine spider mite (carmine spider mite; 10 ppm, mortality after 72 hrs): 100%
control against carmine spider mite (carmine spider mite; [2]): 100%
control against carmine spider mite (carmine spider mite; [3]): 100%
control effect against corn rust (%) (corn rust; 6.25 mg/L, protectant activity): 100%
control effect against corn rust (%) (corn rust; 25 mg/L, protectant activity): 100%
control effect against corn rust (%) (corn rust; 100 mg/L, protectant activity): 100%
control effect against corn rust (%) (corn rust; 400 mg/L, protectant activity): 100%
protectant activity against corn rust in vivo (corn rust; 6.25 ppm): 100%
protectant activity against corn rust in vivo (corn rust; 25 ppm): 100%
protectant activity against corn rust in vivo (corn rust; 100 ppm): 100%
protectant activity against corn rust in vivo (corn rust; 400 ppm): 100%
control effect against wheat powdery mildew (%) (wheat powdery mildew; 6.25 mg/L, protectant activity): 98%
control effect against wheat powdery mildew (%) (wheat powdery mildew; 25 mg/L, protectant activity): 100%
control effect against wheat powdery mildew (%) (wheat powdery mildew; 100 mg/L, protectant activity): 100%
control effect against wheat powdery mildew (%) (wheat powdery mildew; 400 mg/L, protectant activity): 100%
protectant activity against wheat powdery mildew in vivo (wheat powdery mildew; 25 ppm): 100%
protectant activity against wheat powdery mildew in vivo (wheat powdery mildew; 100 ppm): 100%
protectant activity against wheat powdery mildew in vivo (wheat powdery mildew; 400 ppm): 100%
protectant activity against cucumber downy mildew in vivo (cucumber downy mildew; 25 ppm): 100%
protectant activity against cucumber downy mildew in vivo (cucumber downy mildew; 50 ppm): 100%
protectant activity against cucumber downy mildew in vivo (cucumber downy mildew; 100 ppm): 100%
protectant activity against cucumber downy mildew in vivo (cucumber downy mildew; 400 ppm): 100%

Cc1ncnc(NCc2ccc(Oc3ncc(C(F)(F)F)cc3Cl)cc2)c1Cl [CK23, reference compound]
pest or weed control at 600 µg/mL (Diamond back moth; 72 h, 600 mg/L): 0%
pest or weed control at 600 µg/mL (armyworm; 72 h, 600 mg/L, read-out: Insecticidal activity against armyworm (%)): 0%
pest or weed control at 600 µg/mL ([1]; Myzus persicae, foliar, 48 h, 600 mg/L, contrastive test, read-out: Insecticidal activity against peach aphid (%)): 0%
Insecticidal activity against carmine spider mite (% ) (carmine spider mite; 600 mg/L, contrastive test): 64%
pest or weed control at 6.25 µg/mL (corn rust; Zea mays, 168 h, read-out: control effect against corn rust (%), 6.25 mg/L, protectant activity): 0%
pest or weed control at 25 µg/mL (corn rust; Zea mays, 168 h, read-out: control effect against corn rust (%), 25 mg/L, protectant activity): 0%
pest or weed control at 100 µg/mL (corn rust; Zea mays, 168 h, read-out: control effect against corn rust (%), 100 mg/L, protectant activity): 0%
pest or weed control at 400 µg/mL (corn rust; Zea mays, 168 h, read-out: control effect against corn rust (%), 400 mg/L, protectant activity): 100%
control effect against wheat powdery mildew (%) (wheat powdery mildew; 400 mg/L, protectant activity): 100%
pest or weed control at 6.25 µg/mL (wheat powdery mildew; Triticum aestivum, 168 h, read-out: control effect against wheat powdery mildew (%), 6.25 mg/L, protectant activity): 0%
pest or weed control at 25 µg/mL (wheat powdery mildew; Triticum aestivum, 168 h, read-out: control effect against wheat powdery mildew (%), 25 mg/L, protectant activity): 0%
pest or weed control at 100 µg/mL (wheat powdery mildew; Triticum aestivum, 168 h, read-out: control effect against wheat powdery mildew (%), 100 mg/L, protectant activity): 0%
control effect against cucumber downy mildew (%) (cucumber downy mildew; 400 mg/L, protectant activity): 100%
pest or weed control at 25 µg/mL (cucumber downy mildew; Cucumis sativus, 168 h, read-out: control effect against cucumber downy mildew (%), 25 mg/L, protectant activity): 0%
pest or weed control at 50 µg/mL (cucumber downy mildew; Cucumis sativus, 168 h, read-out: control effect against cucumber downy mildew (%), 50 mg/L, protectant activity): 0%
pest or weed control at 100 µg/mL (cucumber downy mildew; Cucumis sativus, 168 h, read-out: control effect against cucumber downy mildew (%), 100 mg/L, protectant activity): 0%

CCc1ncnc(NCCc2ccc(Oc3ccc(Cl)cc3)c(OC)c2)c1Cl [II-1965]
control (test results against diamond back moth) (Diamond back moth; 600 ppm): 100%
control (test results against armyworm) (armyworm; 600 ppm): 100%
Insecticidal activity against peach aphid (%) ([1]; 10 mg/L, contrastive test): 100%
Insecticidal activity against peach aphid (%) ([1]; 100 mg/L, contrastive test): 100%
Insecticidal activity against peach aphid (%) ([1]; 600 mg/L, contrastive test): 100%
control (test results against green peach aphid) ([1]; 10 ppm): 100%
control (test results against green peach aphid) ([1]; 100 ppm): 100%
control (test results against green peach aphid) ([1]; 600 ppm): 100%
control against carmine spider mite (carmine spider mite; [2]): 100%
control against carmine spider mite (carmine spider mite; [3]): 100%
protectant activity against corn rust in vivo (corn rust; 400 ppm): 100%
protectant activity against wheat powdery mildew in vivo (wheat powdery mildew; 400 ppm): 100%
protectant activity against cucumber downy mildew in vivo (cucumber downy mildew; 400 ppm): 100%
